From patent US7390783B2, “Charged phospholipid compositions and methods for their use” (Ottawa Heart Institute Research Corporation, priority 2000, dated 2008)

Columns and labels:
[1] = tested on: lipoprotein CE and FC in whole blood (red blood cells); test: Incubation of whole blood with PC or PI vesicles: lipoprotein CE and FC; format: cell-based, human
Protocol: Referring now to FIG. 4, there is graphically depicted the effect of PI or PC vesicles on lipoprotein CE and FC. Incubation of whole blood with PC vesicles results in a 60% increase in the CE content of the lipoproteins, while FC content is reduced by about 10%. […] Negatively charged phospholipids appeared to promote a reciprocal exchange of CE for FC between red blood cells and the lipoprotein particles. […] It has previously been taught that red blood cells cannot store CE and therefore utilize a membrane-bound CE hydrolase to maintain membrane FC levels. Without wishing to be bound by theory, the results therefore indicate that PI stimulates the degradation of lipoprotein CE.

[2] = tested on: HDL, LDL and VLDL cholesterol; test: PI injections into hypercholesterolemic (cholesterol-fed) rabbits: lipoprotein cholesterol levels; format: in vivo, rabbit; conditions: 36 mg 2× daily for 7 days
Protocol: Referring now to FIG. 8, there is graphically depicted the effect of PI injection on lipoprotein cholesterol levels in hypercholesterolemic rabbits. Rabbits were fed a diet enriched in cholesterol for a period of 4 weeks to increase the levels of cholesterol in the LDL and VLDL particles in the bloodstream. One half of the study rabbits were then injected with 36 mg of PI 2× daily for 7 days. On day 7, plasma samples were drawn and lipoproteins were fractionated by size exclusion chromatography on two Superose 6 columns. Shown are gel filtration profiles for the different rabbit plasmas, which illustrate the levels of cholesterol in the various lipoprotein fractions. The untreated hypercholesterolemic rabbit plasma sample is shown to have high levels of LDL and VLDL cholesterol. PI injections caused a greater than 7-fold reduction in VLDL cholesterol and about a 2.5-fold reduction in LDL cholesterol levels over the 7 day period. […] PI therefore can be used to treat hypercholesterolemia and reduce plasma LDL and VLDL cholesterol levels.

[3] = target: T1, lipoprotein lipase (Homo sapiens, UniProt P06858); test: Lipid hydrolysis by lipoprotein lipase in plasma enriched with charged lipid; format: biochemical; conditions: not shown
T1 sequence (P06858 28-475): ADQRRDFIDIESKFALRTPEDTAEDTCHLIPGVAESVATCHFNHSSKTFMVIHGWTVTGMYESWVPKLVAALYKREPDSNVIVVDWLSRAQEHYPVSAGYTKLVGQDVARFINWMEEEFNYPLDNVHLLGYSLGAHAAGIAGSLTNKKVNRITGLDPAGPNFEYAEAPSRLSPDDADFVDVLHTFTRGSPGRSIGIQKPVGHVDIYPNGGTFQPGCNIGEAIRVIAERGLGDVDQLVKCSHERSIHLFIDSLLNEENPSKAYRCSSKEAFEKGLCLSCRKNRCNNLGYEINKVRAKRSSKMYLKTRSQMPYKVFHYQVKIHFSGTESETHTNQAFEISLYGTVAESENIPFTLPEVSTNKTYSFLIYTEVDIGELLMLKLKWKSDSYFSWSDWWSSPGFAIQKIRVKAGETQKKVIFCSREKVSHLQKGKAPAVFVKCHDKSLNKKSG
Text: Referring now to FIG. 10, there is shown the effect of lipoprotein charge on hepatic lipase. High density lipoprotein particles were enriched to contain various amounts of anionic or cationic lipids and then characterized as substrates for pure human hepatic lipase. Decreasing the net negative charge on the lipoprotein was associated with a reduction in the lipolytic activity of is hepatic lipase. Lipoprotein charge can also be used to regulate lipoprotein lipase. […] Lipid hydrolysis by hepatic or lipoprotein lipase can therefore be affected by alterations in the charge properties of plasma lipoproteins.

[4] = tested on: faecal cholesterol output; test: Faecal cholesterol excretion after PI or PC injection; format: in vivo, rabbit
Protocol: Rabbits are injected with 40 μmol PI or PC vesicles containing 400 μCi […]. Animals are sacrificed at 30 min, and bile is aspirated from the gall bladder. In addition the livers are harvested, homogenized and tissue radioactivity determined. Sterol excretion in the faeces is measured similarly except that faecal cholesterol levels are measured over a time period of 96 hours. Referring now to FIG. 7, there is graphically depicted the effect of PI injection associated with sterol excretion. […] PC injection into a rabbit had no effect on cholesterol excretion, while PI injection enhanced faecal cholesterol output by about 300% at 2 days post injection. The increase in cholesterol output returned to normal by about day 4.

[5] = tested on: cytomegalovirus (CMV); test: Clearance of cytomegalovirus from the plasma of a rabbit; format: in vivo; conditions: 36 mg vesicles; blood sample 10 minutes post injection
Protocol: Rabbits were injected with 8×10^10 cytomegalovirus (CMV) particles and then with 36 mg of either uncharged vesicles, phosphatidylcholine (PC), or anionic vesicles, phosphatidylinositol (PI). Blood samples were taken at specific intervals and the amount of virus in the blood samples was determined by immunometric analysis.

[6] = tested on: biliary FC output; test: Biliary FC output after injection of PI or PC vesicles containing [^3H]-FC; format: in vivo, rabbit; conditions: sacrificed at 30 min
Protocol: Rabbits are injected with 40 μmol PI or PC vesicles containing 400 μCi […]. Animals are sacrificed at 30 min, and bile is aspirated from the gall bladder. In addition the livers are harvested, homogenized and tissue radioactivity determined. Sterol excretion in the faeces is measured similarly except that faecal cholesterol levels are measured over a time period of 96 hours.
Referring now to FIG. 6, there is shown the effect of PI on biliary FC output after rabbits are injected with PI or PC vesicles containing [^3H]-FC. […] Without wishing to be bound by theory, PI may enhance the clearance of cholesterol from plasma and promote its uptake and accumulation in the liver. In addition, PI injection appears to be associated with an increase output of cholesterol into bile. About 20-fold enhanced output of cholesterol into bile is observed (FIG. 6).

[7] = PI mass measurements in HDL after injection of PI vesicles; format: in vivo, rabbit
Text: The clearance of PI from the different lipoproteins may have been due to either a lipoprotein-cellular transfer or to a selective hydrolysis by a charged phospholipid specific phospholipase.

[8] = tested on: Human plasma; test: Plasma clotting time (prothrombin time); format: biochemical; conditions: human plasma incubated with increasing amounts of vesicles, 24 h at 4° C.
Protocol: Referring now to FIG. 11, there is shown the effect of charged lipid on blood coagulation. Human plasma was incubated with various amounts of uncharged vesicles, phosphatidylcholine (PC) or anionic vesicles, phosphatidylinositol (PI), for 24 h at 4° C. Prothrombin time was then measured with the use of a commercially available kit.

- effect on lipid hydrolysis by lipoprotein lipase [3]: stimulate lipid hydrolysis
- level of PI in HDL, of the total HDL-PL ([7]; after 10 min, initially below detection levels): up to 30%
- HDL-PI content, of the HDL-PL ([7]; by 3 h): 5-10%
Compound: CCCCCCCC/C=C\CCCCCCCC(=O)O[C@H](COC(=O)CCCCCCCCCCCCCCC)COP(=O)(O)O[C@@H]1[C@H](O)[C@H](O)[C@@H](O)[C@H](O)[C@H]1O [PI, 1-palmitoyl-2-oleoyl phosphatidylinositol]
- increase of lipoprotein FC levels [1]: about 40%
- reduction of lipoprotein CE [1]: about 40%
- effect on amount of cholesterol in the HDL particles [2]: slightly increased
- reduction in LDL cholesterol levels [2]: ~2.5 fold
- reduction in VLDL cholesterol [2]: greater than 7 fold
- faecal cholesterol output enhanced by ([4]; 2 days post injection): about 300%
- increase in cholesterol output returned to normal by ([4]; rabbit, in vivo): ~4 days
- increased rate of clearance of the CMV injectate relative to PC [5]: 1.7 fold
- [^3H]-FC in plasma and liver in comparison to PC [6]: reduction of [^3H]-FC in plasma, and an elevation of [^3H]-FC in the liver
- enhanced output of cholesterol into bile ([6]; in comparison to PC): About 20 fold
- effect on plasma clotting time (prothrombin time) [8]: caused an inhibition to the formation of prothrombin
